Measurements as given in patent US20070049564A1 (Wyeth, priority 2005, published 2007).
Converted amounts (≈) assume the structure as drawn.

Columns and labels:
Experiment in all cases: MIC, broth microdilution
E. coli GC 2203 = conditions: Escherichia coli
Experimental: Antimicrobial susceptibility testing. The in vitro activities of the antibiotics are determined by the broth microdilution method as recommended by the National Committee for Clinical Laboratory Standards (NCCLS) (1). Mueller-Hinton II broth (MHBII)(BBL Cockeysville, Md.) is the medium employed in the testing procedures. Microtiter plates containing serial dilutions of each antimicrobial agent are inoculated with each organism to yield the appropriate density (10^5 CFU/ml) in a 100 μl final volume. The plates are incubated for 18-22 hours at 35° C. in ambient air. […] Standard Pharmacological Test Procedures
Presented in Tables I-XIII are representative compounds of Formula I which were evaluated against a panel of 40 selected gram-positive and gram-negative bacteria strains by pre-incubation in water, mouse serum or human serum. Representative compounds were first incubated in mouse serum for an hour prior to the in vitro testing against a panel of selected gram-positive and gram-negative bacteria strains. All compounds were also pre-incubated in water for an hour prior to testing as control. Representative compounds of Formula I were incubated in human serum prior to MIC determination.

S. pneumoniae* GC 4465 = conditions: Streptococcus pneumoniae
E. coli GC 2270 = conditions: Escherichia coli
Experimental: (§1) Antimicrobial susceptibility testing. The in vitro activities of the antibiotics are determined by the broth microdilution method as recommended by the National Committee for Clinical Laboratory Standards (NCCLS) (1). Mueller-Hinton II broth (MHBII)(BBL Cockeysville, Md.) is the medium employed in the testing procedures. Microtiter plates containing serial dilutions of each antimicrobial agent are inoculated with each organism to yield the appropriate density (10^5 CFU/ml) in a 100 μl final volume. The plates are incubated for 18-22 hours at 35° C. in ambient air.
Representative compounds were first incubated in mouse serum for an hour prior to the in vitro testing against a panel of selected gram-positive and gram-negative bacteria strains. All compounds were also pre-incubated in water for an hour prior to testing as control. Representative compounds of Formula I were incubated in human serum prior to MIC determination.

E. coli GC 2271 = conditions: Escherichia coli
E. coli GC 4560 = conditions: Escherichia coli
S. aureus GC 6467 = conditions: Staphylococcus aureus
E. faecalis GC 2242 = conditions: Enterococcus faecalis
E. coli GC 2235 = conditions: Escherichia coli
E. faecium GC 4556 = conditions: Enterococcus faecium
S. aureus GC 6335 = conditions: Staphylococcus aureus
S. agalactiae GC 4564 = conditions: Streptococcus agalactiae
S. aureus GC 2216 = conditions: Staphylococcus aureus
P. aeruginosa GC 2214 = conditions: Pseudomonas aeruginosa
E. coli GC 2232 = conditions: Escherichia coli
E. faecalis GC 2267 = conditions: Enterococcus faecalis
S. typhimurium GC 2172 = conditions: Salmonella enterica, TYPHIMURIUM
E. coli GC 2231 = conditions: Escherichia coli
Experimental: as §1
Representative compounds were first incubated in mouse serum for an hour prior to the in vitro testing against a panel of selected gram-positive and gram-negative bacteria strains. All compounds were also pre-incubated in water for an hour prior to testing as control.

E. coli GC 4559 = conditions: Escherichia coli
E. coli GC 3226 = conditions: Escherichia coli

## CN(C)c1cc(NC(=O)CN(C(=O)OCOC(=O)CCC2CCCCC2)C(C)(C)C)c(O)c2c1C[C@H]1C[C@H]3[C@H](N(C)C)C(O)=C(C(N)=O)C(=O)[C@@]3(O)C(O)=C1C2=O [Example 63, ({[(2-{[(5aR,6aS,7S,10aS)-9-(aminocarbonyl)-4,7-bis(dimethylamino)-1,8,10a,11-tetrahydroxy-10,12-dioxo-5,5a,6,6a,7,10,10a,12-octahydrotetracen-2-yl]amino}-2-oxoethyl)(tert-butyl)amino]carbonyl}oxy)methyl 3-cyclohexylpropanoate]
E. coli GC 2203; GC2203, pre-incubation in human serum
  MIC: > 64 µg/mL
E. coli GC 2203; GC2203, pre-incubation in mouse serum
  MIC: 1 µg/mL (≈ 1.25 µM)
E. coli GC 2203; GC2203, pre-incubation in water
  MIC: > 64 µg/mL
S. pneumoniae* GC 4465; pre-incubation in human serum
  MIC: 0.12 µg/mL (≈ 0.15 µM)
S. pneumoniae* GC 4465; pre-incubation in mouse serum
  MIC: 0.12 µg/mL (≈ 0.15 µM)
S. pneumoniae* GC 4465; pre-incubation in water
  MIC: 0.12 µg/mL (≈ 0.15 µM)
E. coli GC 2270; GC2270, pre-incubation in human serum
  MIC: 64 µg/mL (≈ 80.2 µM)
E. coli GC 2270; GC2270, pre-incubation in mouse serum
  MIC: 0.5 µg/mL (≈ 0.627 µM)
E. coli GC 2270; GC2270, pre-incubation in water
  MIC: > 64 µg/mL
E. coli GC 2271; GC2271, pre-incubation in human serum
  MIC: > 64 µg/mL
E. coli GC 2271; GC2271, pre-incubation in mouse serum
  MIC: 0.5 µg/mL (≈ 0.627 µM)
E. coli GC 2271; GC2271, pre-incubation in water
  MIC: > 64 µg/mL
E. coli GC 4560; GC4560, pre-incubation in human serum
  MIC: 2 µg/mL (≈ 2.51 µM)
E. coli GC 4560; GC4560, pre-incubation in mouse serum
  MIC: 0.5 µg/mL (≈ 0.627 µM)
E. coli GC 4560; GC4560, pre-incubation in water
  MIC: 16 µg/mL (≈ 20.1 µM)
S. aureus GC 6467; GC6467, pre-incubation in human serum
  MIC: 4 µg/mL (≈ 5.01 µM)
S. aureus GC 6467; GC6467, pre-incubation in mouse serum
  MIC: 2 µg/mL (≈ 2.51 µM)
S. aureus GC 6467; GC6467, pre-incubation in water
  MIC: 16 µg/mL (≈ 20.1 µM)
E. faecalis GC 2242; GC2242, pre-incubation in human serum
  MIC: 1 µg/mL (≈ 1.25 µM)
E. faecalis GC 2242; GC2242, pre-incubation in mouse serum
  MIC: 1 µg/mL (≈ 1.25 µM)
E. faecalis GC 2242; GC2242, pre-incubation in water
  MIC: 1 µg/mL (≈ 1.25 µM)
E. coli GC 2235; GC2235, pre-incubation in human serum
  MIC: > 64 µg/mL
E. coli GC 2235; GC2235, pre-incubation in mouse serum
  MIC: 0.5 µg/mL (≈ 0.627 µM)
E. coli GC 2235; GC2235, pre-incubation in water
  MIC: > 64 µg/mL
E. faecium GC 4556; GC4556, pre-incubation in human serum
  MIC: 4 µg/mL (≈ 5.01 µM)
E. faecium GC 4556; GC4556, pre-incubation in mouse serum
  MIC: 1 µg/mL (≈ 1.25 µM)
E. faecium GC 4556; GC4556, pre-incubation in water
  MIC: 0.5 µg/mL (≈ 0.627 µM)
S. aureus GC 6335; GC6335, pre-incubation in human serum
  MIC: 1 µg/mL (≈ 1.25 µM)
S. aureus GC 6335; GC6335, pre-incubation in mouse serum
  MIC: 1 µg/mL (≈ 1.25 µM)
S. aureus GC 6335; GC6335, pre-incubation in water
  MIC: 4 µg/mL (≈ 5.01 µM)
S. agalactiae GC 4564; GC4564, pre-incubation in human serum
  MIC: 0.25 µg/mL (≈ 0.313 µM)
S. agalactiae GC 4564; GC4564, pre-incubation in mouse serum
  MIC: 0.25 µg/mL (≈ 0.313 µM)
S. agalactiae GC 4564; GC4564, pre-incubation in water
  MIC: 0.25 µg/mL (≈ 0.313 µM)
S. aureus GC 2216; GC2216, pre-incubation in human serum
  MIC: 1 µg/mL (≈ 1.25 µM)
S. aureus GC 2216; GC2216, pre-incubation in mouse serum
  MIC: 1 µg/mL (≈ 1.25 µM)
S. aureus GC 2216; GC2216, pre-incubation in water
  MIC: 4 µg/mL (≈ 5.01 µM)
P. aeruginosa GC 2214; GC2214, pre-incubation in human serum
  MIC: > 64 µg/mL
P. aeruginosa GC 2214; GC2214, pre-incubation in mouse serum
  MIC: 32 µg/mL (≈ 40.1 µM)
P. aeruginosa GC 2214; GC2214, pre-incubation in water
  MIC: > 64 µg/mL
E. coli GC 2232; GC2232, pre-incubation in human serum
  MIC: > 64 µg/mL
E. coli GC 2232; GC2232, pre-incubation in mouse serum
  MIC: 1 µg/mL (≈ 1.25 µM)
E. coli GC 2232; GC2232, pre-incubation in water
  MIC: > 64 µg/mL
E. faecalis GC 2267; GC2267, pre-incubation in human serum
  MIC: 2 µg/mL (≈ 2.51 µM)
E. faecalis GC 2267; GC2267, pre-incubation in mouse serum
  MIC: 1 µg/mL (≈ 1.25 µM)
E. faecalis GC 2267; GC2267, pre-incubation in water
  MIC: 16 µg/mL (≈ 20.1 µM)
S. typhimurium GC 2172; pre-incubation in human serum
  MIC: > 64 µg/mL
S. typhimurium GC 2172; pre-incubation in mouse serum
  MIC: 2 µg/mL (≈ 2.51 µM)
S. typhimurium GC 2172; pre-incubation in water
  MIC: > 64 µg/mL
E. coli GC 2231; GC2231, pre-incubation in human serum
  MIC: > 64 µg/mL
E. coli GC 2231; GC2231, pre-incubation in mouse serum
  MIC: 1 µg/mL (≈ 1.25 µM)
E. coli GC 2231; GC2231, pre-incubation in water
  MIC: > 64 µg/mL
E. coli GC 4559; GC4559, pre-incubation in human serum
  MIC: > 64 µg/mL
E. coli GC 4559; GC4559, pre-incubation in mouse serum
  MIC: 2 µg/mL (≈ 2.51 µM)
E. coli GC 4559; GC4559, pre-incubation in water
  MIC: > 64 µg/mL
E. coli GC 3226; GC3226, pre-incubation in human serum
  MIC: > 64 µg/mL
E. coli GC 3226; GC3226, pre-incubation in mouse serum
  MIC: 1 µg/mL (≈ 1.25 µM)
E. coli GC 3226; GC3226, pre-incubation in water
  MIC: > 64 µg/mL
